From patent publication US20140024700A1, “BLOOD-BORNE MIRNAS AS SURROGATE MARKERS OF DRUG EFFICACY FOR CARDIAC CONDITIONS” (miRagen Therapeutics, Inc., priority 2010, published 2014) come the findings set out here.

“Also recorded” adds a separate entry of the source.

One data set has as its system Dahl salt-sensitive rats. Briefly: Dahl salt-sensitive rat heart failure model, 8% NaCl high-salt diet (Example 1). The class given is in vivo. The settings on record: 8% NaCl HS diet. From the text:
To determine the therapeutic potential of miR-208a inhibition in vivo, we designed an antimiR targeting bases 2 to 17 of the 5′ region of mature miR-208a and containing a combination of LNA and DNA linked by phosphorothioate bonds. The sequence of the antimiR-208a, which is referred to as M-10101, was 5′-[…]-3′ (SEQ ID NO: 12). To test the therapeutic relevance of miR-208a inhibition, we used Dahl salt-sensitive rats that were either fed a low-salt (LS) diet (0.25% NaCl) or a high-salt (HS) diet (8.0% NaCl) starting at 8 weeks of age. Initiation of an HS diet in Dahl salt-sensitive rats results in chronic hypertension, which progresses to a model of congestive heart failure associated primarily with diastolic dysfunction (Rodenbaugh et al. (2007) Am J Physiol Heart Circ Physiol. 293, H1705-H1713). After one week on the HS diet, rats were administered saline, 25 mg/kg antimiR-208a, or 25 mg/kg scrambled control oligo subcutaneously every two weeks. […] As an indication of health, we monitored body weight during the duration of the study.
The LNA-antimiR oligonucleotides were synthesized at miRagen Therapeutics, Inc. as unconjugated and fully phosphorothiolated oligonucleotides perfectly complementary to the 5′ region of the mature miR-208a sequence. The LNA control oligonucleotide consisted of a sequence directed against a C. elegans specific miRNA. […]

For data set [1], the system named is miR-499, miR-208b, Myh6, Myh7, Myh7b, HP1β. Briefly: Cardiac tissue markers by real-time PCR, Northern and Western blot, 4% NaCl diet (Example 1). The format is in vivo, rat. The note with it: 4% NaCl HS diet. From the text:
This regulation of miR-499 and miR-208b was confirmed by Northern blot analysis (FIG. 2B).
To assess the regulation of the myosin host genes, we examined Myh6, Myh7, and Myh7b mRNA levels.
For in vivo real-time PCR analysis, RNA was extracted from cardiac tissue using Trizol (Invitrogen) after which two μg RNA from each tissue sample was used to generate cDNA using Super Script II reverse transcriptase per manufacturer's specifications (Invitrogen). To detect the level of miR-208 RT-PCR was performed using the Taqman MicroRNA assay (Applied Biosystems, ABI) according the manufacturer's recommendations, using 10-100 ng of total RNA. The expression of a subset of genes was analyzed by quantitative real time PCR using Taqman probes purchased from ABI.
Total RNA was isolated from cardiac tissue samples by using Trizol reagent (Gibco/BRL). Northern blots to detect microRNAs were performed as described previously described. A U6 probe served as a loading control (IDT). 10 μg of total RNA from cardiomyocytes or heart tissue was loaded on 20% acrylamide denaturing gels and transferred to Zeta-probe GT genomic blotting membranes (Bio-Rad) by electrophoresis. After transfer, the blots were cross-linked and baked at 80° C. for 1 hr. To maximize the sensitivity of miRNA detection, oligonucleotide probes were labeled with the Starfire Oligos Kit (IDT, Coralville, Iowa) and α-^32P dATP (Amersham or Perkin Elmer). Probes were hybridized to the membranes overnight at 39° C. in Rapid-hyb buffer (Amersham), after which they were washed twice for 10 minutes at 39° C. with 0.5×SSC containing 0.1% SDS. The blots were exposed and quantified by PhosphorImager analysis (GE HealthCare Life Sciences) and a U6 probe served as a loading control (ABI). The intensity of the radioactive signal was used to quantify the fold change in expression using a phosphorimager and ImageQuant (Bio-Rad).
Western blot analysis. For Western blot analysis, Myosin was extracted from cardiac cells or tissue as described (H-amalainen, N. & Pette, D. Patterns of myosin isoforms in mammalian skeletal muscle fibres. Microsc Res Tech 30, 381-389 (1995)). MHC isoforms were detected by loading 0.1 ug protein lysate on a 4-15% gradient gel and separated by SDS PAGE and Western blotting was performed with mouse monoclonal anti-myosin (slow, skeletal M8421) (Sigma, Mo.), which is highly specific for Myh7.
On the technique in general: In qPCR the cycle at which signal appears reflects the starting amount.

Data set [2] deals with miR-208a, miR-499, miR-208b, Myh6, Myh7b, Myh7, Dynlt1, Vcpip, Tegt. The data set is described as follows: Cardiac tissue real-time PCR, 6% NaCl diet (Example 3). The format is in vivo, rat. As to the method:
One week following the initiation of the 6.0% NaCl diet, rats were dosed subcutaneously (sc) with saline or oligonucleotides (M−10101, 5′-CTTTTTGCTCGTCTTA-3′ (SEQ ID NO: 12) or M-10591, 5′-TCCTAGAAAGAGTAGA-3′ (SEQ ID NO:13)) at 25 mg/kg every 2 weeks. Captopril or water were dosed daily by oral gavage. Echocardiography was performed every 2 weeks starting one week post […] dosing. The Captopril dose for rat was selected to match the standard human dose in man.
For in vivo real-time PCR analysis, RNA was extracted from cardiac tissue using Trizol (Invitrogen) after which two μg RNA from each tissue sample was used to generate cDNA using Super Script II reverse transcriptase per manufacturer's specifications (Invitrogen). To detect the level of miR-208 RT-PCR was performed using the Taqman MicroRNA assay (Applied Biosystems, ABI) according the manufacturer's recommendations, using 10-100 ng of total RNA. The expression of a subset of genes was analyzed by quantitative real time PCR using Taqman probes purchased from AB.

[3] abbreviates: real-time PCR, Northern blot, listed as anti-miR-208a.
Where [4] appears, read: real-time PCR, listed as AntimiR-208a.
The mark [5] stands for this setting: real-time PCR, listed as anti-miR-208a.
[6] abbreviates: M-10101 25 mg/kg sc, Captopril po daily.

“M-10101: antimiR targeting bases 2 to 17 of mature miR-208a, LNA and DNA linked by phosphorothioate bonds; 5′-CTTTTTGCTCGTCTTA-3′ (SEQ ID NO: 12) (all phosphorothioate, sugars by position and methylation of C not given here; LNA/DNA mixmer; listed as Homo sapiens)”: the Food intake result with Dahl salt-sensitive rats was “comparable ingestion between all HS-fed groups”. Also, the “Survival (Kaplan-Meier)” value in the data set with Dahl salt-sensitive rats (25 mg/kg sc every 2 weeks starting 1 week after HS diet, listed as antimiR-208a, 25 mg/kg) was “significantly alleviated these symptoms; also recorded: significantly improved”. In data set [1] (listed as anti-miR-208a), the “HP1β (miR-208a target) protein, Western blot” value is “target depression” and the “Myh7 protein, Western blot of ventricular tissue” value is “dose-dependent regulation of Myh7 was confirmed”. Moreover, in data set [1] (listed as antimiR-208a), the “Myh7 protein, Western blot of ventricular tissue” value is recorded as “dose-dependent reduction”. Also, in data set [1] (setting [3]), the “miR-208b level in cardiac tissue” value is given as “dose-dependent decrease in miR-208b levels” and the “miR-499 expression in cardiac tissue” value is recorded as “dose-dependent decrease in expression; also recorded: dose-dependent reduction in miR-499”. In data set [1] (real-time PCR, Northern blot, listed as antimiR-208a), the “miR-208b level in cardiac tissue” value is “significantly blunts this response”. Moreover, in data set [1] (setting [4]), the “Myh6 mRNA in cardiac tissue” value was “dose-dependently increases Myh6 expression”, the “Myh7b mRNA in cardiac tissue” value is “reduces Myh7b expression” and the “Myh7 mRNA (HS diet-induced increase) in cardiac tissue” value is listed as “dose-dependently reduced”. Moreover, in data set [1] (setting [5]), the “Myh6 mRNA in cardiac tissue” value was “normalized the decreased expression”, the “Myh7b mRNA in cardiac tissue” value is “dose-dependent reduction” and the “Myh7 mRNA (HS diet-induced increase) in cardiac tissue” value is reported as “dose-dependently blunted”. In data set [2] (25 mg/kg sc), the “Expression of direct target genes of miR-208a (Dynlt1, Vcpip, Tegt) in cardiac tissue” value is listed as “increase in expression”. Further, in data set [2] (25 mg/kg sc every 2 weeks), the miR-208a cardiac level result is listed as “further reduced”, the miR-208b cardiac level result is “reduction of cardiac levels” and the miR-499 cardiac level entry is reported as “reduction of cardiac levels”. For the same substance, in data set [2] (setting [6]), the “Myh7b levels in the heart” value is listed as “specifically reduced” and the “αMHC (Myh6) in the heart (reduced by HS diet)” value was “normalized”. The “βMHC (Myh7) expression (increase induced by HS diet)” value in data set [2] (M-10101 25 mg/kg sc, Captopril po daily, listed as antimiR-208a) is on record as “more effective; also recorded: not significantly different from animals on the LS diet”.
